Results as given in PubChem BioAssay AID248 (DTP/NCI, 2004).
“And” between values parts separate entries of the source, which are not always exact repeats. Identical values can stand only once. Inconclusive results and toxic doses are left out.

Test system: L1210 leukemia ip in BDF1 mice, survival T/C
Assay: NCI In Vivo Anticancer Drug Screen. Data for tumor model L1210 Leukemia (intraperitoneal) in B6D2F1 (BDF1) mice
Conditions: endpoint: mean survival time, higher = longer survival
Method in brief: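 In this screen, tumor-bearing mice given compound are compared to those given vehicle, and their survival values are reported as a treated-to-control quotient.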

[1] = dose: 200.0 mg/kg/injection, schedule: Q04DX002 (ip), vehicle: Klucel (hydroxypropylcellulose) (HPC)
[2] = dose: 400.0 mg/kg/injection, schedule: Q04DX002 (ip), vehicle: Klucel (hydroxypropylcellulose) (HPC)
[3] = dose: 100.0 mg/kg/injection, schedule: Q01DX001 (ip), vehicle: saline
[4] = dose: 200.0 mg/kg/injection, schedule: Q01DX001 (ip), vehicle: saline
[5] = dose: 400.0 mg/kg/injection, schedule: Q01DX001 (ip), vehicle: saline
[6] = dose: 100.0 mg/kg/injection, schedule: Q04DX003 (ip), vehicle: saline with Tween-80
[7] = dose: 200.0 mg/kg/injection, schedule: Q04DX003 (ip), vehicle: saline with Tween-80
[8] = dose: 200.0 mg/kg/injection, schedule: Q01DX009 (ip), vehicle: saline with Tween-80
[9] = dose: 400.0 mg/kg/injection, schedule: Q01DX009 (ip), vehicle: saline with Tween-80
[10] = dose: 50.0 mg/kg/injection, schedule: Q01DX001 (ip), vehicle: Klucel (hydroxypropylcellulose) (HPC)
[11] = dose: 100.0 mg/kg/injection, schedule: Q01DX001 (ip), vehicle: Klucel (hydroxypropylcellulose) (HPC)
[12] = dose: 200.0 mg/kg/injection, schedule: Q01DX001 (ip), vehicle: Klucel (hydroxypropylcellulose) (HPC)
[13] = dose: 100.0 mg/kg/injection, schedule: Q01DX001 (ip), vehicle: carboxymethylcellulose (CMC)
[14] = dose: 100.0 mg/kg/injection, schedule: Q01DX009 (ip), vehicle: acetone
[15] = dose: 200.0 mg/kg/injection, schedule: Q01DX001 (ip), vehicle: carboxymethylcellulose (CMC)
[16] = dose: 200.0 mg/kg/injection, schedule: Q01DX009 (ip), vehicle: acetone
[17] = dose: 400.0 mg/kg/injection, schedule: Q01DX001 (ip), vehicle: carboxymethylcellulose (CMC)
[18] = dose: 100.0 mg/kg/injection, schedule: Q04DX003 (ip), vehicle: Klucel (hydroxypropylcellulose) (HPC)
[19] = dose: 200.0 mg/kg/injection, schedule: Q04DX003 (ip), vehicle: Klucel (hydroxypropylcellulose) (HPC)
[20] = dose: 400.0 mg/kg/injection, schedule: Q04DX003 (ip), vehicle: Klucel (hydroxypropylcellulose) (HPC)
[21] = dose: 25.0 mg/kg/injection, schedule: Q01DX009 (ip), vehicle: Klucel (hydroxypropylcellulose) (HPC)
[22] = dose: 100.0 mg/kg/injection, schedule: Q01DX009 (ip), vehicle: Klucel (hydroxypropylcellulose) (HPC)

CCN=C(c1ccc(NC(=O)c2ccc(C(=O)Nc3ccc(C(=NCC)N(CC)C(=O)OC)cc3)cc2)cc1)N(CC)C(=O)OC
T/C (dose: 1.5 mg/kg/injection, schedule: Q01DX015 (ip), vehicle: methylcellulose (MC)): 112 % of control | T/C (dose: 7.5 mg/kg/injection, schedule: Q01DX015 (ip), vehicle: methylcellulose (MC)): 167 % of control

O=C(Nc1ccc(F)cc1)C(Cl)(Cl)Cl
T/C (dose: 100.0 mg/kg/injection, schedule: Q04DX002 (ip), vehicle: Klucel (hydroxypropylcellulose) (HPC)): 102 % of control | T/C [1]: 94 % of control | T/C [2]: 94 % of control

COC1OC(COC(C)=O)C(OC(C)=O)C1OC(C)=O (stereo unspecified)
T/C [3]: 102 % of control | T/C [4]: 104 % of control | T/C [5]: 93 % of control

O=C1C[C@H]2[C@H](CO)[C@@H](OC(=O)c3ccc(-c4ccccc4)cc3)C[C@H]2O1
T/C (dose: 12.5 mg/kg/injection, schedule: Q01DX009 (ip), vehicle: alcohol): 103 % of control | T/C (dose: 25.0 mg/kg/injection, schedule: Q01DX009 (ip), vehicle: alcohol): 101 % of control | T/C (dose: 50.0 mg/kg/injection, schedule: Q01DX009 (ip), vehicle: alcohol): 98 % of control

CC1(C)C(C#N)C(=O)N(Cc2ccccc2)C(=O)C1C#N (stereo unspecified)
T/C [6]: 101 % of control | T/C [7]: 93 % of control

O=C(CCc1ccc(O)cc1)N/N=C/c1ccc2c(c1)OCO2
T/C [8]: 97 % of control | T/C [9]: 87 % of control

CCOC(=O)c1sc2cc[nH]c2c1O
T/C [10]: 102 % of control | T/C [11]: 100 % of control | T/C [12]: 94 % of control

O=S(=O)(F)c1cc(CBr)ccc1Cl
T/C (dose: 100.0 mg/kg/injection, schedule: Q04DX002 (ip), vehicle: saline with Tween-80): 98 % of control | T/C (dose: 200.0 mg/kg/injection, schedule: Q04DX002 (ip), vehicle: saline with Tween-80): 95 % of control | T/C (dose: 400.0 mg/kg/injection, schedule: Q04DX002 (ip), vehicle: saline with Tween-80): 101 % of control

Nc1ccc(-c2cc3ccccc3oc2=O)cc1
T/C (dose: 6.25 mg/kg/injection, schedule: Q04DX002 (ip), vehicle: Klucel (hydroxypropylcellulose) (HPC)): 100 % of control and 119 % of control | T/C (dose: 12.5 mg/kg/injection, schedule: Q04DX002 (ip), vehicle: Klucel (hydroxypropylcellulose) (HPC)): 92 % of control and 111 % of control | T/C (dose: 25.0 mg/kg/injection, schedule: Q04DX002 (ip), vehicle: Klucel (hydroxypropylcellulose) (HPC)): 92 % of control and 102 % of control

NS(=O)(=O)Cl
T/C (dose: 100.0 mg/kg/injection, schedule: Q01DX009 (sc), vehicle: olive oil, sesame oil, peanut oil): 98 % of control | T/C (dose: 100.0 mg/kg/injection, schedule: Q04DX003 (sc), vehicle: olive oil, sesame oil, peanut oil): 102 % of control | T/C (dose: 200.0 mg/kg/injection, schedule: Q01DX009 (sc), vehicle: olive oil, sesame oil, peanut oil): 100 % of control | T/C (dose: 200.0 mg/kg/injection, schedule: Q04DX003 (sc), vehicle: olive oil, sesame oil, peanut oil): 103 % of control | T/C (dose: 400.0 mg/kg/injection, schedule: Q01DX009 (sc), vehicle: olive oil, sesame oil, peanut oil): 95 % of control | T/C (dose: 400.0 mg/kg/injection, schedule: Q04DX003 (sc), vehicle: olive oil, sesame oil, peanut oil): 108 % of control

NC(=O)c1cnc(N)nc1C(N)=O
T/C (dose: 100.0 mg/kg/injection, schedule: Q01DX009 (ip), vehicle: saline with Tween-80): 94 % of control | T/C [6]: 96 % of control | T/C [8]: 100 % of control | T/C [7]: 100 % of control | T/C [9]: 96 % of control | T/C (dose: 400.0 mg/kg/injection, schedule: Q04DX003 (ip), vehicle: saline with Tween-80): 94 % of control

c1ccc2c(c1)cc1ccc3cc4ccccc4c4ccc2c1c34
T/C (dose: 50.0 mg/kg/injection, schedule: Q01DX009 (ip), vehicle: acetone): 110 % of control | T/C [13]: 100 % of control | T/C [14]: 105 % of control | T/C [15]: 100 % of control | T/C [16]: 107 % of control | T/C [17]: 100 % of control

Cc1ccc(NC(=O)Nc2ccccc2C(N)=O)c([N+](=O)[O-])c1
T/C [18]: 90 % of control | T/C [19]: 87 % of control | T/C [20]: 90 % of control

Clc1ccc2[nH]c(-c3ccccc3)c(-c3ccccc3)c2c1
T/C [3]: 92 % of control | T/C [14]: 102 % of control | T/C [4]: 89 % of control | T/C [16]: 102 % of control | T/C [5]: 96 % of control

Cc1n(-c2ccccc2)c2ccccc2[n+]1[O-]
T/C [3]: 101 % of control | T/C [4]: 101 % of control | T/C [5]: 101 % of control

Cc1nc(-c2ccc(N=Cc3ccc(N(CCOS(C)(=O)=O)CCOS(C)(=O)=O)cc3Cl)cc2)c(C)s1
T/C (dose: 12.5 mg/kg/injection, schedule: Q01DX009 (ip), vehicle: Klucel (hydroxypropylcellulose) (HPC)): 114 % of control | T/C [21]: 111 % of control

C[N+](C)(C)CCCNC(=O)Nc1ccc(Cl)cc1
T/C (dose: 3.13 mg/kg/injection, schedule: Q04DX002 (ip), vehicle: saline): 102 % of control | T/C (dose: 6.25 mg/kg/injection, schedule: Q04DX002 (ip), vehicle: saline): 117 % of control | T/C (dose: 12.5 mg/kg/injection, schedule: Q04DX002 (ip), vehicle: saline): 106 % of control

Oc1ccc(Br)cc1-c1nc2cc(Cl)c(Cl)cc2nc1-c1cc(Br)ccc1O
T/C [22]: 94 % of control | T/C [18]: 107 % of control | T/C (dose: 200.0 mg/kg/injection, schedule: Q01DX009 (ip), vehicle: Klucel (hydroxypropylcellulose) (HPC)): 94 % of control | T/C [19]: 101 % of control | T/C (dose: 400.0 mg/kg/injection, schedule: Q01DX009 (ip), vehicle: Klucel (hydroxypropylcellulose) (HPC)): 96 % of control | T/C [20]: 95 % of control

CCCCN(CCCC)CCCNC(=O)OCC
T/C [21]: 92 % of control | T/C (dose: 50.0 mg/kg/injection, schedule: Q01DX009 (ip), vehicle: Klucel (hydroxypropylcellulose) (HPC)): 94 % of control | T/C (dose: 50.0 mg/kg/injection, schedule: Q04DX003 (ip), vehicle: Klucel (hydroxypropylcellulose) (HPC)): 100 % of control | T/C [22]: 106 % of control and 87 % of control | T/C [18]: 103 % of control

Nc1ccc2c(c1)[nH]c(=O)c1cc(Br)ccc12
T/C [13]: 104 % of control | T/C [15]: 100 % of control | T/C [17]: 102 % of control

CC1CCC(C(C)C)C(OC(=O)Nc2ccc(S(=O)(=O)N(C)C)cc2)C1 (stereo unspecified)
T/C [3]: 94 % of control | T/C [4]: 89 % of control | T/C [5]: 91 % of control

COc1ccc(C(CC(=O)O)c2cc(OC)c(OC)c(OC)c2)cc1OC (stereo unspecified)
T/C [13]: 92 % of control | T/C [15]: 93 % of control | T/C [17]: 93 % of control

N#CC(c1ccc(Br)cc1)C1c2ccccc2-c2ccccc21 (stereo unspecified)
T/C [10]: 93 % of control | T/C [11]: 91 % of control | T/C [12]: 86 % of control

CCCCCCCCCCCCCCSSCCCCCCCCCCCCCC
T/C [3]: 98 % of control | T/C [4]: 92 % of control | T/C [5]: 96 % of control

O=c1c2ccccc2nc(CCN(CCCl)CCCl)n1-c1ccc(Cl)cc1
T/C (dose: 150.0 mg/kg/injection, schedule: Q04DX002 (ip), vehicle: Klucel (hydroxypropylcellulose) (HPC)): 92 % of control | T/C [1]: 98 % of control | T/C [2]: 106 % of control

COc1cc2c(cc1OC)CC(=O)NC2
T/C (dose: 100.0 mg/kg/injection, schedule: Q04DX003 (ip), vehicle: saline): 95 % of control | T/C (dose: 200.0 mg/kg/injection, schedule: Q04DX003 (ip), vehicle: saline): 97 % of control | T/C (dose: 400.0 mg/kg/injection, schedule: Q04DX003 (ip), vehicle: saline): 97 % of control

CCC(CC)C(N)=O
T/C [11]: 100 % of control | T/C [12]: 102 % of control | T/C (dose: 400.0 mg/kg/injection, schedule: Q01DX001 (ip), vehicle: Klucel (hydroxypropylcellulose) (HPC)): 107 % of control

CCCN(CCC)C(=O)CCl
T/C [3]: 109 % of control | T/C [4]: 95 % of control

NNC(=O)CCO
T/C [3]: 103 % of control | T/C (dose: 100.0 mg/kg/injection, schedule: Q01DX009 (ip), vehicle: saline): 89 % of control | T/C [4]: 105 % of control | T/C (dose: 200.0 mg/kg/injection, schedule: Q01DX009 (ip), vehicle: saline): 100 % of control | T/C [5]: 94 % of control | T/C (dose: 400.0 mg/kg/injection, schedule: Q01DX009 (ip), vehicle: saline): 96 % of control
